Test results: US10363251B2, “(+)-morphinans as antagonists of toll-like receptor 9 and therapeutic uses thereof” (Mallinckrodt LLC, priority 2009, dated 2019)

Tests used:
Type in all cases: cell-based
TLR3 = biological target: T1, TLR3 (Homo sapiens, UniProt O15455); test: TLR3 antagonist screening, NF-κB-inducible SEAP reporter in HEK293 cells; details: for Average % Inhibition at TLR3: 10 μM, stimulated with poly(I:C) at 1 μg/ml
T1 construct: expressed in transfected cells; host or cells: HEK293
Experimental: (§1) Stimulation of TLRs 2, 3, 4, 5, 7, 8, and 9 was determined by assessing activation of the transcription factor NF-κB in HEK293 cells that were engineered to express the corresponding receptors. Assessment of TLR stimulation was based on the use of an NF-κB-inducible secreted alkaline phosphatase (SEAP) reporter system in which the SEAP reporter was under the control of a promoter inducible by NF-κB. Thus, the degree of activation of TLRs can be indirectly quantified spectrophotometrically by measuring the amount of the SEAP reporter that is produced.
(§2) The appropriate TLR-expressing cells were plated in Growth Medium in a 96-well plate (25,000-50,000 cells/well). The cells were stimulated with the appropriate positive control ligand or no ligand was added (negative control). The positive control ligands were: HKLM was used to stimulate TLR2; poly(I:C) was used to stimulate TLR3; LPS was used to stimulate TLR4; Flagellin was used to stimulate TLR5; CL097 was used to stimulate TLR7; CL075 was used to stimulate TLR8; CpG oligodeoxynucleotide (ODN) 2006 was used to stimulate TLR9. To test whether (+)-morphinans could block that activation of the TLR, the cells were pretreated with an antagonist for 30 minutes prior to addition of the positive control ligand. For this, 20 μL of the stock test compound solution (100 μM in H2O) was added to give a total volume of 200 μL. […] After a 16-20 hr incubation period at 37° C. in a CO2 incubator, 20 μL of the cell culture supernatant was added to 180 μL of QUANTI-Blue™ Media (InvivoGen, San Diego, Calif.), and the resulting solutions were incubated at 37° C. for an additional 1-3 hours according to the manufacturer's instructions. The OD's of the samples were then read at 650 nm on a Beckman Coulter AD 340C Absorbance Detector.

TLR2 = biological target: T2, TLR2 (Homo sapiens, UniProt O60603); test: TLR2 antagonist screening, NF-κB-inducible SEAP reporter in HEK293 cells; details: for Average % Inhibition at TLR2: 10 μM, stimulated with HKLM at 10^8 cell/ml
T2 construct: expressed in transfected cells; host or cells: HEK293
Experimental: as §1, §2

TLR9 = biological target: T3, TLR9 (Homo sapiens, UniProt Q9NR96); test: TLR9 antagonist screening, NF-κB-inducible SEAP reporter in HEK293 cells; details: for Average % Inhibition at TLR9: 10 μM, stimulated with CpG ODN 2006 at 100 ng/ml
T3 construct: expressed in transfected cells; host or cells: HEK293
T3 sequence (Q9NR96 26-1032): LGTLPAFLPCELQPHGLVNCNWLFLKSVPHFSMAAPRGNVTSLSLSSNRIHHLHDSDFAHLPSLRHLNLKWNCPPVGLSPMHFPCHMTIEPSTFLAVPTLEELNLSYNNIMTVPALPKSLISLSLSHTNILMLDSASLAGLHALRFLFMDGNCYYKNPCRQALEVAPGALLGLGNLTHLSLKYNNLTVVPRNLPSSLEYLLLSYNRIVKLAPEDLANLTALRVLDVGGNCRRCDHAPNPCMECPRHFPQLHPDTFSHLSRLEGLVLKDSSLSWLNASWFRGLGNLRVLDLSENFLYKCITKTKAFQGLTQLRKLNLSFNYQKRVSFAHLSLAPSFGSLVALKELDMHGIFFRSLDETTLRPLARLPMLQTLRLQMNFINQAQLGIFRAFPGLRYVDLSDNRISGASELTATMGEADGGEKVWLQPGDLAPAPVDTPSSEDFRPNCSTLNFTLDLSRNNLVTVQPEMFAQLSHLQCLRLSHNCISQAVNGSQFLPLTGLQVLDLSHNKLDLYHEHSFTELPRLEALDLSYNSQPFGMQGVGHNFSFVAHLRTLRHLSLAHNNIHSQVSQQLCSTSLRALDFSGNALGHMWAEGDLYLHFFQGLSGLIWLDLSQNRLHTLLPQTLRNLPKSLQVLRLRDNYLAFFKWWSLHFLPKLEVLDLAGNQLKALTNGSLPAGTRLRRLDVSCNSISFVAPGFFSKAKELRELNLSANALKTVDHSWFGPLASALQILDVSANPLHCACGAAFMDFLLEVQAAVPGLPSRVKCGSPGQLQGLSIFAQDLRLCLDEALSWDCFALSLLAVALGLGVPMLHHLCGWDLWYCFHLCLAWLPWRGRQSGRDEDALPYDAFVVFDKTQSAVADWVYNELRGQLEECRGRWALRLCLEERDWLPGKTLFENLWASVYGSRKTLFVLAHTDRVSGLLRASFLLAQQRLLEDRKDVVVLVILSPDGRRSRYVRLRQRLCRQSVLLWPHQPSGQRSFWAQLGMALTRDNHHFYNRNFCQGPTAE
Experimental: as §1, §2

T2 sequence (O60603 21-784, species assumed): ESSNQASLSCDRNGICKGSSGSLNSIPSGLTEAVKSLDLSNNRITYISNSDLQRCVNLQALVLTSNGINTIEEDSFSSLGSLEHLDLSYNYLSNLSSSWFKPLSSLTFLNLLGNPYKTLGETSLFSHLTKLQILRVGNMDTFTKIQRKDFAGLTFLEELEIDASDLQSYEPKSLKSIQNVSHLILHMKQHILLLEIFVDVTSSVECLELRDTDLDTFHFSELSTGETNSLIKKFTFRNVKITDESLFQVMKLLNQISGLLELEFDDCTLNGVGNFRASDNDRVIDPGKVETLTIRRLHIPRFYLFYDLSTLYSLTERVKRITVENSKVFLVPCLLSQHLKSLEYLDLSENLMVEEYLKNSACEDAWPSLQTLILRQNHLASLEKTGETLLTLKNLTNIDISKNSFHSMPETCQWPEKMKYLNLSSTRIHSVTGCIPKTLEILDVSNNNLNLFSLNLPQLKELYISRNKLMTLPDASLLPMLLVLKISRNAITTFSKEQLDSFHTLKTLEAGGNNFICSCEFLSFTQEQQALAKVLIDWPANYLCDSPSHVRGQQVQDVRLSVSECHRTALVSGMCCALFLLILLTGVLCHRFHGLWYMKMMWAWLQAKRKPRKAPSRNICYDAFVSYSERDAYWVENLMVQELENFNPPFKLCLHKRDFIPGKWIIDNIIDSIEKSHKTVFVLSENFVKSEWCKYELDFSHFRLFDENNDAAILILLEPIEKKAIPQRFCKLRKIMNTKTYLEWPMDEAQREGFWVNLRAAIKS
T1 sequence (O15455 24-904, species assumed): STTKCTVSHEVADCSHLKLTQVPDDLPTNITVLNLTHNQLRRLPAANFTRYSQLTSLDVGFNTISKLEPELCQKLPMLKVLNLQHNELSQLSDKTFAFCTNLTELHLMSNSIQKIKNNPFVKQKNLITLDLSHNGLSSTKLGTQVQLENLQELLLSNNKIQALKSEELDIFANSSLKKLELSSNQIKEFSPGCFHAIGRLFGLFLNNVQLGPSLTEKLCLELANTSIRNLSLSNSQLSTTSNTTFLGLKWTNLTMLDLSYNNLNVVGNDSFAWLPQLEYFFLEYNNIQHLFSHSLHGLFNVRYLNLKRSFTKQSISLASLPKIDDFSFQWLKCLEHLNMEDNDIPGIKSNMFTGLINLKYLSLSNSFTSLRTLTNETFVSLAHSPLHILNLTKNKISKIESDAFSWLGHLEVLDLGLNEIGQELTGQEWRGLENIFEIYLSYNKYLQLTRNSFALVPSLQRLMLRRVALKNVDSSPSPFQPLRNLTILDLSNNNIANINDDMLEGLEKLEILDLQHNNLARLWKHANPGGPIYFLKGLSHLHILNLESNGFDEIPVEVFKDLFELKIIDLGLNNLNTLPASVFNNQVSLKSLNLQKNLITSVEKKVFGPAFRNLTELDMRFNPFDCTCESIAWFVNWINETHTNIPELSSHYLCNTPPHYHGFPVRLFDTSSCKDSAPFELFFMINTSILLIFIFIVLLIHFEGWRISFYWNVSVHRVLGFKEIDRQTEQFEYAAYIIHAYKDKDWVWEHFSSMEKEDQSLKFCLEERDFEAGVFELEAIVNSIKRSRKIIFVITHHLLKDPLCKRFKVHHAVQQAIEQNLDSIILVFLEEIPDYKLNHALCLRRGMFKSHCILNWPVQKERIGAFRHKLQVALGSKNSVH

SMILES | inhibition at 10 µM (TLR3; HEK293, stimulated with poly(I:C) at 1 μg/ml) | inhibition at 10 µM (TLR2; HEK293, stimulated with HKLM at 10^8 cell/ml) | inhibition at 10 µM (TLR9; HEK293, stimulated with CpG ODN 2006 at 100 ng/ml) | Average % Inhibition at TLR3 (TLR3) | Average % Inhibition at TLR2 (TLR2) | Average % Inhibition at TLR9 (TLR9)
COC1=C[C@@H]2[C@@H]3Cc4ccc(OC)c(O)c4[C@]2(CCN3C)CC1=O [Sinomenine, sinomenine] | 28% | 30% | 55% | – | – | –
COc1ccc2c(c1O)[C@@]13CCN(C)[C@@H](C2)[C@H]1CC(OC)C(=O)C3 (stereo partly drawn) [Dihydrosinomenine, dihydrosinomenine] | – | – | – | 40% | 27% | 42%
C=CCN1CC[C@]23c4c5ccc(O)c4O[C@H]2C(=O)CC[C@]3(O)[C@H]1C5 [(+)-Naloxone, (+)-naloxone] | – | – | – | 27% | 24% | 45%
